From ChEMBL document CHEMBL1201862, “PubChem BioAssay data set” (2004)
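Dose response: 5 concentrations. Exposure: 48 h. Format: 96-well plates. Endpoint: linear interpolation; highest concentration if not reached. GI50 is the concentration that inhibits growth by half.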 Activity calls are given as the source filed them. Rule as the data show it: active = GI50 up to about 1.1 µM and inactive = higher.

How the values were obtained:
Experiment in all cases: growth of human tumour cells (NCI), 48 h
HCT-15 = tested on: HCT-15
HCC 2998 = tested on: HCC 2998
HL-60 = tested on: HL-60
CAKI-1 = tested on: CAKI-1
OVCAR-4 = tested on: OVCAR-4
RPMI-8226 = tested on: RPMI-8226
ACHN = tested on: ACHN
Malme-3M = tested on: Malme-3M
HCT-116 = tested on: HCT-116
U-251 = tested on: U-251
LOX IMVI = tested on: LOX IMVI
KM12 = tested on: KM12
SN12C = tested on: SN12C
OVCAR-3 = tested on: OVCAR-3
A498 = tested on: A498
HOP-92 = tested on: HOP-92
NCI-H522 = tested on: NCI-H522
A549 = tested on: A549
MOLT-4 = tested on: MOLT-4
M14 = tested on: M14

Row | SMILES | GI50 (HCT-15) [µM] | GI50 (HCC 2998) | GI50 (HL-60) | GI50 (CAKI-1) | GI50 (OVCAR-4) | GI50 (RPMI-8226) | GI50 (ACHN) | GI50 (Malme-3M) | GI50 (HCT-116) | GI50 (U-251) | GI50 (LOX IMVI) | GI50 (KM12) | GI50 (SN12C) | GI50 (OVCAR-3) | GI50 (A498) | GI50 (HOP-92) | GI50 (NCI-H522) | GI50 (A549) | GI50 (MOLT-4) | GI50 (M14)
1 | Fc1ccc(F)c(C2SCc3nc4ccccc4n32)c1 (stereo not given) | 71.1 | > 100 µM (inactive) | 20.1 µM (inactive) | 95.5 µM (inactive) | 95.7 µM (inactive) | 40 µM (inactive) | 98.4 µM (inactive) | 57.1 µM (inactive) | 61 µM (inactive) | > 100 µM (inactive) | 65.6 µM (inactive) | 72.6 µM (inactive) | > 100 µM (inactive) | 54.6 µM (inactive) | 43.8 µM (inactive) | 28.5 µM (inactive) | 36.1 µM (inactive) | 71.4 µM (inactive) | 27.2 µM (inactive) | 72.1 µM (inactive)
2 | O=C(NCc1ccccc1)c1cc2ccccc2o/c1=N\c1ccccc1F | 51.2 | 23.1 µM (inactive) | > 100 µM (inactive) | 14 µM (inactive) | 13.5 µM (inactive) | > 100 µM (inactive) | 19.5 µM (inactive) | 25.2 µM (inactive) | 23.4 µM (inactive) | 35.5 µM (inactive) | 14.9 µM (inactive) | 25.7 µM (inactive) | 28.9 µM (inactive) | 46 µM (inactive) | 38.6 µM (inactive) | 20 µM (inactive) | 22 µM (inactive) | 18.1 µM (inactive) | > 100 µM (inactive) | 34.4 µM (inactive)
3 | CCOC(=O)c1c(Br)c(-c2ccc(OC)cc2)c(Br)n1C | 8.61 | > 10 µM (inactive) | 4.06 µM (inactive) | > 10 µM (inactive) | 47.1 µM (inactive) | 17.7 µM (inactive) | 29.6 µM (inactive) | 12.1 µM (inactive) | 6.56 µM (inactive) | 33.2 µM (inactive) | 7.14 µM (inactive) | 11.4 µM (inactive) | 12.9 µM (inactive) | 17.1 µM (inactive) | 14.6 µM (inactive) | 8.17 µM (inactive) | 6.62 µM (inactive) | 21.3 µM (inactive) | 8.57 µM (inactive) | 26.4 µM (inactive)
4 | Cc1cn(C2CC(O)C(Cn3cc(Cn4ncc(=O)[nH]c4=O)nn3)O2)c(=O)[nH]c1=O (stereo not given) | > 100 | > 100 µM (inactive) | > 100 µM (inactive) | > 100 µM (inactive) | > 100 µM (inactive) | > 100 µM (inactive) | > 100 µM (inactive) | > 100 µM (inactive) | > 100 µM (inactive) | > 100 µM (inactive) | > 100 µM (inactive) | > 100 µM (inactive) | > 100 µM (inactive) | > 100 µM (inactive) | > 100 µM (inactive) | > 100 µM (inactive) | > 100 µM (inactive) | > 100 µM (inactive) | > 100 µM (inactive) | > 100 µM (inactive)
5 | C[C@@H]1C[C@@H]2OC(=O)[C@]3(C)[C@H]2[C@@H](OC3(C)O)[C@]2(C)C(=O)C=C[C@@H]12 (stereo not given in full) [TENULIN] | 10.1 | 17.2 µM (inactive) | 3.48 µM (inactive) | 22.1 µM (inactive) | 10.8 µM (inactive) | 4.3 µM (inactive) | 19.5 µM (inactive) | 13.6 µM (inactive) | 16.6 µM (inactive) | 40.3 µM (inactive) | 19.2 µM (inactive) | 23.6 µM (inactive) | 18.3 µM (inactive) | 20.6 µM (inactive) | 22.6 µM (inactive) | 17.5 µM (inactive) | 6.67 µM (inactive) | > 100 µM (inactive) | 16.4 µM (inactive) | 20.6 µM (inactive)
6 | O=C(NCCCNCCNC(=O)c1cc(-c2ccccc2)nc2ccccc12)c1cc(-c2ccccc2)nc2ccccc12 | 1.52 | 1.7 µM (inactive) | 1.59 µM (inactive) | 2.26 µM (inactive) | 2.13 µM (inactive) | 3.25 µM (inactive) | 1.79 µM (inactive) | 1.88 µM (inactive) | 1.68 µM (inactive) | 1.85 µM (inactive) | 1.58 µM (inactive) | 1.91 µM (inactive) | 1.72 µM (inactive) | 1.97 µM (inactive) | 2.29 µM (inactive) | 2.12 µM (inactive) | 1.75 µM (inactive) | 1.73 µM (inactive) | 2.09 µM (inactive) | 2.24 µM (inactive)
7 | COC(=O)C1=CC(O)CCC1c1ccc(OC)cc1 (stereo not given) | > 100 | > 100 µM (inactive) | > 100 µM (inactive) | > 100 µM (inactive) | > 100 µM (inactive) | > 100 µM (inactive) | > 100 µM (inactive) | > 100 µM (inactive) | > 100 µM (inactive) | > 100 µM (inactive) | > 100 µM (inactive) | > 100 µM (inactive) | > 100 µM (inactive) | > 100 µM (inactive) | > 100 µM (inactive) | > 100 µM (inactive) | > 100 µM (inactive) | > 100 µM (inactive) | > 100 µM (inactive) | > 100 µM (inactive)
8 | CC(C)(C)O/N=C/c1cc(NC(=S)c2ccccc2)ccc1Cl | 15.1 | 11.3 µM (inactive) | 16.3 µM (inactive) | 29.3 µM (inactive) | 18.3 µM (inactive) | 11.5 µM (inactive) | 16.4 µM (inactive) | 19 µM (inactive) | 12.3 µM (inactive) | 17 µM (inactive) | 15.7 µM (inactive) | 12.7 µM (inactive) | 12.2 µM (inactive) | 16.3 µM (inactive) | 13.6 µM (inactive) | 14.9 µM (inactive) | 11.3 µM (inactive) | 15.7 µM (inactive) | 8.71 µM (inactive) | 18.6 µM (inactive)
9 | N#CCCN(CCC#N)C(=O)c1cccc(C(=O)N(CCC#N)CCC#N)c1 | > 100 | > 85.1 µM (inactive) | > 55.2 µM (inactive) | > 100 µM (inactive) | > 100 µM (inactive) | > 50.4 µM (inactive) | > 100 µM (inactive) | 72.1 µM (inactive) | > 55.6 µM (inactive) | > 45.8 µM (inactive) | 16.4 µM (inactive) | > 93.3 µM (inactive) | > 43.7 µM (inactive) | > 100 µM (inactive) | > 100 µM (inactive) | > 58.7 µM (inactive) | > 100 µM (inactive) | > 69.7 µM (inactive) | > 100 µM (inactive) | > 69 µM (inactive)
10 | COc1ccc([C@H]2CC(=O)C[C@H](c3ccc(OC)cc3)C23C(=O)c2ccccc2C3=O)cc1 | 4.02 | 8.55 µM (inactive) | 2.33 µM (inactive) | 3.06 µM (inactive) | 9.57 µM (inactive) | 4.54 µM (inactive) | 16.6 µM (inactive) | 5 µM (inactive) | 4.46 µM (inactive) | 4.24 µM (inactive) | 4.16 µM (inactive) | 4.13 µM (inactive) | 7.57 µM (inactive) | 2.97 µM (inactive) | > 100 µM (inactive) | 5.74 µM (inactive) | 3.16 µM (inactive) | 5.97 µM (inactive) | 4.79 µM (inactive) | 6.34 µM (inactive)
11 | CC(C)NC(=O)OCCN=C1c2ccccc2C(Br)C(Br)c2ccccc21 (stereo not given) | 9.75 | 22.7 µM (inactive) | 1.05 µM (active) | 7.01 µM (inactive) | 6.93 µM (inactive) | 7.83 µM (inactive) | 7.6 µM (inactive) | 5.4 µM (inactive) | 7.01 µM (inactive) | 10 µM (inactive) | 2.94 µM (inactive) | 21.8 µM (inactive) | 12.6 µM (inactive) | 12.1 µM (inactive) | 1.62 µM (inactive) | 5.3 µM (inactive) | 1.68 µM (inactive) | 24.7 µM (inactive) | 6.19 µM (inactive) | 8.65 µM (inactive)
12 | CC(=O)CC[N+](C)(C)C | 22.7 | 52.5 µM (inactive) | 4.42 µM (inactive) | 1.9 µM (inactive) | 14.8 µM (inactive) | 5.94 µM (inactive) | 17 µM (inactive) | 16.1 µM (inactive) | 25.2 µM (inactive) | 34.6 µM (inactive) | 14.1 µM (inactive) | 77.3 µM (inactive) | 27.7 µM (inactive) | 37.3 µM (inactive) | 69.2 µM (inactive) | 10.7 µM (inactive) | 0.929 µM (active) | 83.4 µM (inactive) | 6.15 µM (inactive) | 23 µM (inactive)
13 | N#CC(c1ccccc1)N(CCc1ccccc1)C(=O)c1ccccc1 (stereo not given) | > 100 | > 100 µM (inactive) | > 100 µM (inactive) | > 100 µM (inactive) | 51.2 µM (inactive) | > 100 µM (inactive) | > 91.8 µM (inactive) | > 72.1 µM (inactive) | > 74.8 µM (inactive) | 52.4 µM (inactive) | > 100 µM (inactive) | > 100 µM (inactive) | > 100 µM (inactive) | > 100 µM (inactive) | > 100 µM (inactive) | 20 µM (inactive) | > 59.2 µM (inactive) | > 100 µM (inactive) | > 100 µM (inactive) | > 100 µM (inactive)
14 | O=C1/C(=C/c2ccc([N+](=O)[O-])cc2)CNC/C1=C\c1ccc([N+](=O)[O-])cc1 | 1.13 | 5.62 µM (inactive) | 0.0944 µM (active) | 1.79 µM (inactive) | 3.63 µM (inactive) | 0.382 µM (active) | 12.3 µM (inactive) | 46.5 µM (inactive) | 0.63 µM (active) | 0.469 µM (active) | 2.09 µM (inactive) | 1.36 µM (inactive) | 5.41 µM (inactive) | 2.45 µM (inactive) | 16.6 µM (inactive) | 22.1 µM (inactive) | 2.52 µM (inactive) | 17.5 µM (inactive) | 2.22 µM (inactive) | 12.5 µM (inactive)
